Reference: patent publication US11266636B2, “Maleate salt of the free base of N-[5-(aminosulfonyl)-4-methyl-1,3-thiazol-2-yl]-N-methyl-2-[4-(2-pyridinyl)-phenyl]-acetamide, pharmaceutical formulations, methods of manufacture and uses thereof for the treatment of herpes viruses” (priority 2016, dated 2022)
Values after ≈ are worked out from the molar mass of the structure shown.

How the values were obtained:
[1] = Solubility determination in different pharmaceutical excipients at ambient temperature; conditions: for solubility at 22 h: thermodynamic from solid
Experimental: Dimethyl sulfoxide (DMSO) served as control solvent.
Suspensions were prepared by weighing the test items into glass vials and addition of the appropriate solvent. The suspensions were shortly vortex-mixed and shaken over-head for 22 hours. Aliquots (500 μL) were transferred to filtration devices with polyvinylidene fluoride membranes and the solid matter was separated by centrifugation. The filtrates were diluted (1:100) in acetonitrile/methanol/water/acetic acid (25+25+50+0.5, v+v+v+v).
Control solutions of all salts were prepared in DMSO at a concentration of 20 mg/mL and treated as described above. The solubility was determined by concentration measurement of the diluted filtrate of the oversaturated solutions.
Chromatographic separation was performed on a Phenomenex Luna C18(2), 5 μm column (150×2 mm) by gradient elution using 1% acetic acid and acetonitrile/methanol (1+1, v+v) containing 1% acetic acid. For detection, a diode-array detector was used. Absorption was recorded at a wavelength of 300 nm. A detailed method description was filed in the raw data folder.

[2] = Solubility in water and resulting pH; format: physicochemical; conditions: for solubility at 22 h: water, thermodynamic from solid
Experimental: Additionally, the solubility of the free base of pritelivir and its aforementioned salts in water was determined and the resulting pH was measured.
For detection, a diode-array detector was used. Absorption was recorded at a wavelength of 300 nm.

[3] = Relative solubility in simulated gastric and intestinal fluids (FaSSGF, FaSSIF, FeSSIF); format: physicochemical; conditions: 2 hours; for Relative solubility in FaSSIF: fasted state simulated intestinal fluid, pH 6.5, 37° C.; for Relative solubility in FeSSIF: fed state simulated intestinal fluid, pH 5, 37° C.
Experimental: The pH was adjusted to 6.5 by addition of 1 N hydrochloric acid.
The pH was adjusted to 5 by addition of 1 N hydrochloric acid.
Suspensions of the mono ethane sulfonate salt, the maleate salt, the mono benzene sulfonate salt, the hemi ethane-1,2-disulfonate, the mesylate salt or the pritelivir free base were prepared as triplicates by weighing approximately 12 mg test item and addition of 600 μL FaSSGF, FaSSIF or FeSSIF (final concentration 20 mg/mL). The suspensions were incubated at 37° C. Aliquots (100 μL) were transferred into centrifugation devices (polyvinylidene difluoride membrane, 0.2 μm) for removal of solid matter (10 minutes at approximately 15000×g and 37° C.) after 0, 0.5, 1 and 2 hours. FaSSGF filtrates were diluted in acetonitrile to a final dilution of 1:1000. FaSSIF filtrates were diluted in acetonitrile to a final dilution of 1:50 and FeSSIF filtrates to a final dilution of 1:100.
The samples were analyzed for their content of the free base of pritelivir. […] As hydrolysis products were not determined only relative solubility was used for further evaluations of the results.

[4] = Short-term stability in pharmaceutical excipients over two weeks (ambient temperature and 50° C.); format: physicochemical; conditions: for Stability in polyethylene glycol (in words): two weeks storage at 50° C.
Experimental: Additionally, the solubility of the free base of pritelivir and its aforementioned salts in water was determined and the resulting pH was measured. […] For detection, a diode-array detector was used. Absorption was recorded at a wavelength of 300 nm. All calculations were carried out with Microsoft Excel 2010. Mean data are given as arithmetic means. Recoveries were calculated in comparison to the measured start concentration (t0).

[5] = Photostability (xenon lamp, ca. 2000 Wh/m^2, 29 hours, >310 nm), solids and acidic solutions; format: physicochemical; conditions: 0.1 M hydrochloric acid/acetonitrile (75+25)
Experimental: The compounds were exposed as solids and dissolved in 0.1 M hydrochloric acid/acetonitrile (75+25, v+v) at a target concentration of 0.3 mg/mL. Corresponding dark control samples were prepared and placed in UV-light protected vials in the irradiation chamber to keep the ambient conditions equivalent. Additionally, untreated solids were dissolved and analyzed as reference samples. Two samples were prepared from each solid test item. Approximately 20 mg of each test item (corrected for free base) was weighed into quartz glass vials. A second aliquot was weighed into light protected glass vials (dark control). Both samples were placed inside the irradiation chamber. […] Two aliquots were prepared (irradiated and dark control sample). The dark control samples were stored inside the irradiation chamber in closed and light protected glass vials, while the photostressed solutions were stored in quartz flasks, equipped only with a loose quartz glass cover. During irradiation, the samples were partially evaporated due to heat production inside the irradiation chamber. The extent of evaporation was variable from sample to sample (the sulphate salt of pritelivir free base was almost completely evaporated). […] The samples (solutions and solid state) were irradiated with a xenon lamp at […] through a glass filter for 29 hours (total applied dose of UV-light ca. 2000 Wh/m^2). The instrument used was a Suntest CPS+ (Atlas). By the use of the glass filter, only wavelengths >310 nm were irradiated, leading to simulation of the ID65 standard (indoor indirect daylight standard). […] The recorded average chamber heat temperature was 38° C. […] The % peak area was determined for the pritelivir free base in all tested samples. […] Absorption was recorded at a wavelength of 280 nm. […] The degree of decomposition was determined by chromatographic separation of (UV-active) degradation products and by determination of the respective percentage of the total peak area (% total peak area) per chromatogram. As salts dissociate in solution, the peak area of the pritelivir free base was determined in all samples.

HSV-2 = conditions: once daily suppressive therapy; cited from earlier work
herpes simplex virus-2 = conditions: comparison of literature values; cited from earlier work
[6] = propylene glycol, organic solvent or mixture, Solubility in propylene glycol (PG), ambient temperature
[7] = 30% Captisol, aqueous with cosolvent or surfactant or cyclodextrin, Solubility in 30% Captisol, ambient temperature, 22 hours shaking
[8] = 30% hydroxypropyl-β-cyclodextrin (HP-beta CD), aqueous with cosolvent or surfactant or cyclodextrin, Solubility in 30% HP-beta CD, 30% Hydroxypropyl-β-cyclodextrin, ambient temperature
[9] = polyethylene glycol (PEG 400), organic solvent or mixture, Solubility in polyethylene glycol (PEG 400), PEG 400, ambient temperature

Molecule: CCS(=O)(=O)O.Cc1nc(N(C)C(=O)Cc2ccc(-c3ccccn3)cc2)sc1S(N)(=O)=O [mono ethane sulfonate salt, N-methyl-N-(4-methyl-5-sulfamoylthiazol-2-yl)-2-(4-(pyridin-2-yl)phenyl)acetamide ethanesulfonate]
- solubility at 22 h [1, 6]: 5000 to 6000 µg/mL
- solubility at 22 h [2]: 175 to 606 µg/mL
- Relative solubility in FaSSGF ([3]; fasted state simulated gastric fluid, pH 1.6, 37° C.): highest relative solubility
- Relative solubility in FaSSIF [3]: highest relative solubility
- Relative solubility in FeSSIF [3]: highest relative solubility

Molecule: Cc1nc(N(C)C(=O)Cc2ccc(-c3ccccn3)cc2)sc1S(N)(=O)=O.O=S(=O)(O)O [sulfate salt, N-methyl-N-(4-methyl-5-sulfamoylthiazol-2-yl)-2-(4-(pyridin-2-yl)phenyl)acetamide Sulfate]
- solubility at 22 h ([1]; organic solvent or mixture): 12500 µg/mL
- solubility at 22 h [2]: 175 to 606 µg/mL
- Stability in polyethylene glycol (in words) [4]: showed stability
- % total peak area of the free base of pritelivir, dark control samples of the acidic solutions [5]: 95.7%

Molecule: N-methyl-N-(4-methyl-5-sulfamoylthiazol-2-yl)-2-(4-(pyridin-2-yl)phenyl)acetamide hemiethane-1,2-disulphonate [hemi ethane-1,2-disulfonate salt]
- % total peak area of the free base of pritelivir, dark control samples of the acidic solutions [5]: 94.7%

Molecule: Cc1nc(N(C)C(=O)Cc2ccc(-c3ccccn3)cc2)sc1S(N)(=O)=O [free base of pritelivir, N-[5-(aminosulfonyl)-4-methyl-1,3-thiazol-2-yl]-N-methyl-2-[4-(2-pyridinyl)-phenyl]-acetamide]
- solubility at 22 h [1, 7]: 1790 µg/mL (≈ 4.45 mM)
- solubility at 22 h [1, 8]: 1910 µg/mL (≈ 4.75 mM)
- solubility at 22 h [1, 9]: 89600 µg/mL (≈ 223 mM)
- solubility at 22 h [2]: 1.3 µg/mL (≈ 0.00323 mM)
- Stability in ethanol, PEG and propylene glycol ([4]; two weeks, ambient temperature): slight decrease

Molecule: CC(C)[C@H](N)C(=O)OCCOCn1cnc2c(=O)[nH]c(N)nc21 [valacyclovir]
- Risk of transmission of genital herpes (HSV-2): significantly reduces the risk of transmission

Molecule: Cc1nc(N(C)C(=O)Cc2ccc(-c3ccccn3)cc2)sc1S(N)(=O)=O.O=S(=O)(O)c1ccccc1 [mono benzene sulfonate salt, N-methyl-N-(4-methyl-5-sulfamoylthiazol-2-VI)-2-(4-(pyridin-2-yl)phenyl)acetamide benzenesulfonate]
- Relative solubility in FaSSIF [3]: essentially similar concentrations
- Relative solubility in FeSSIF [3]: essentially similar concentrations
- Stability in polyethylene glycol (in words) [4]: showed stability

Molecule: C[C@H](Cn1cnc2c(N)ncnc21)OCP(=O)(O)O [Tenofovir]
- IC50-values compared to the maleate salt (herpes simplex virus-2): significantly higher

Molecule: Cc1nc(N(C)C(=O)Cc2ccc(-c3ccccn3)cc2)sc1S(N)(=O)=O.O=C(O)/C=C\C(=O)O [maleate salt, maleate salt of the free base of N-[5-(amino-sulfonyl)-4-methyl-1,3-thiazol-2-yl]-N-methyl-2-[4-(2-pyridinyl)phenyl]acetamide]
- solubility at 22 h [1, 7]: 24500 µg/mL
- solubility at 22 h [1, 8]: 24100 µg/mL
- solubility at 22 h ([1]; ethanol, organic solvent or mixture, Solubility in ethanol, ambient temperature): 439 µg/mL
- solubility at 22 h [1, 9]: 32200 µg/mL
- Solubility in propylene glycol (PG) ([1]; propylene glycol, ambient temperature, listed as Maleate Salt of Free Base Pritelivir): 5230 µg/mL
- solubility at 22 h [1, 6]: 5000 to 6000 µg/mL
- Solubility in water [2]: 480 µg/mL
- Relative solubility in FaSSIF [3]: essentially similar concentrations
- Relative solubility in FeSSIF [3]: essentially similar concentrations
- % total peak area of the free base of pritelivir, irradiated solutions ([5]; 29 hours, total dose 2000 Wh/m^2): 71.5%
